What all share (assay): Antifungal activity assay (MIC), NCCLS method
Holding throughout (format): cell-based
Common to all, as to conditions: RPMI 1640 medium

Test [1] concerns Candida albicans SC5314 (ATCC). An excerpt:
(§1) In order to measure the minimum inhibitory concentration (MIC), strains Candida albicans SC5314 (ATCC), Candida glabrata BG2 (ATCC), and Cryptococcus neoformans var. grubii […] were used. All the strains used in the test examples of the present invention were purchased from Korean Culture Center of Microorganisms (KCCM) and ATCC, and used. […] As a control group, amphotericin B and fluconazole, which are known to have excellent antifungal inhibitory activity with a problem of human toxicity, were used. Specifically, in order to prepare a medium first, 8.4 g of RPMI-1640 powder (Sigma; […]-1L) was added to 900 ml of distilled water. Next, 34.5 g of MOPS was added thereto, to bring the final concentration to 0.165 M. Then, 100 ml of 20% glucose was added thereto, and then the pH of the resultant was adjusted to 7 using NaOH. Next, after performing filtration with a filter, the filtrate was stored in a refrigeration condition at 4° C. for use in the next experiment. The experimental method and procedure for the MIC assay were as follows: […] (c) in a case of Aspergillus fumigatus, a diluent was prepared at a concentration of 1×10^5 conidia/ml; (d) a 96-well plate was used and 100 μl of the solution was added to each well, so that 2 μl of diluted drug was prepared; (e) 200 μl of the solution was added to a well into which the highest concentration of drug was to be added, and dilution was performed by serial dilution; (f) after performing static culture for 48 hours at 37° C., a degree of growth was measured at OD600 and a comparison was made.

Test [2] concerns Cryptococcus neoformans var. grubii H99 (ATCC).
Source text: as §1

Test [3] concerns Candida glabrata BG2 (ATCC).
Source text: as §1

Converted amounts (≈) assume the structure as drawn. Some results are limits rather than exact numbers.

Turning to `CCC(N)C(=O)NCc1ccc(OCc2ccccc2F)cc1.Cl` (racemic) [Compound 17, (R)/(S)-1-((4-((2-(fluorobenzyl)oxy)benzyl)amino)-1-oxobutane-2-aminum chloride], in test [1], the “MIC C. albicans” value is over 128 mg/L. The “MIC C. neoformans” value in test [2] came to 64 mg/L. Further, the “MIC C. glabrata” value in test [3] is over 128 mg/L.
Regarding `CCC(N)C(=O)NCc1ccc(OCc2ccc(F)cc2)cc1.Cl` (racemic) [Compound 19, (R)/(S)-1-((4-((4-(fluorobenzyl)oxy)benzyl)amino)-1-oxobutane-2-aminium chloride], in test [1], the “MIC C. albicans” value is over 128 mg/L. Moreover, the “MIC C. neoformans” value in test [2] came out at 64 mg/L. In addition, in test [3], the “MIC C. glabrata” value was over 128 mg/L.
For `CCC(N)C(=O)NCc1ccc(OCc2ccccc2C(F)(F)F)cc1.Cl` (racemic) [Compound 20, (R)/(S)-1-oxo-1-((4-((2-(trifluoromethyl)benzyl)oxy)benzyl)amino)butane-2-aminium chloride], the “MIC C. albicans” value in test [1] is 64 mg/L. In test [2], the “MIC C. neoformans” value stood at 16 mg/L. Further, the “MIC C. glabrata” value in test [3] came to 64 mg/L.
For the molecule `CCC(N)C(=O)NCc1ccc(OCc2cccc(C(F)(F)F)c2)cc1.Cl` (racemic) [Compound 21, (R)/(S)-1-oxo-1-((4-((3-(trifluoromethyl)benzyl)oxy)benzyl)amino)butane-2-aminium chloride], in test [1], the “MIC C. albicans” value is 64 mg/L. In test [2], the “MIC C. neoformans” value worked out at 16 mg/L. For the same molecule, the “MIC C. glabrata” value in test [3] worked out at 64 mg/L.
In the case of `CCC(N)C(=O)NCc1ccc(OCc2cccc(Cl)c2)cc1.Cl` (racemic) [Compound 23, (R)/(S)-1-((4-((3-(chlorobenzyl)oxy)benzyl)amino)-1-oxobutane-2-aminium chloride], the “MIC C. albicans” value in test [1] is 64 mg/L. Moreover, the “MIC C. neoformans” value in test [2] was determined as 16 mg/L. The “MIC C. glabrata” value in test [3] was determined as 64 mg/L.
On to `CCC(N)C(=O)NCc1ccc(OCc2ccc(Cl)cc2)cc1.Cl` (racemic) [Compound 24, (R)/(S)-1-((4-((4-(chlorobenzyl)oxy)benzyl)amino)-1-oxobutane-2-aminium chloride], for which the “MIC C. albicans” value in test [1] was found to be 64 mg/L. Also, in test [2], the “MIC C. neoformans” value amounted to 16 mg/L. Also, the “MIC C. glabrata” value in test [3] came to 32 mg/L.
For the molecule `CCCC(N)C(=O)NCc1ccc(OCc2cccc(F)c2)cc1.Cl` (racemic) [Compound 25, (R)/(S)-1-((4-((3-fluorobenzyl)oxy)benzyl)amino)-1-oxopentane-2-aminium chloride], the “MIC C. albicans” value in test [1] was 128 mg/L. The “MIC C. neoformans” value in test [2] stood at 32 mg/L. Besides, the “MIC C. glabrata” value in test [3] worked out at 64 mg/L.
On to `CCC(NC)C(=O)NCc1ccc(OCc2ccc(C(F)(F)F)cc2)cc1` (racemic) [Compound 27, (R)/(S)-2-(methylamino)-N-(4-((4-trifluoromethyl)benzyl)oxy)benzyl)butanamide], for which the “MIC C. albicans” value in test [1] worked out at 16 mg/L (≈ 42.1 µM). Also, the “MIC C. neoformans” value in test [2] came out at 4 mg/L (≈ 10.5 µM). Moreover, in test [3], the “MIC C. glabrata” value was 16 mg/L (≈ 42.1 µM).
On to `CCC(NC)C(=O)NCc1ccc(OCc2ccc(Cl)cc2)cc1` (racemic) [Compound 29, (R)/(S)-N-(4-((4-chlorobenzyl)oxy)benzyl)-2-(methylamino)butanamide], for which, in test [1], the “MIC C. albicans” value came to 32 mg/L (≈ 92.3 µM). Moreover, the “MIC C. neoformans” value in test [2] came to 8 mg/L (≈ 23.1 µM). Besides, the “MIC C. glabrata” value in test [3] turned out to be 32 mg/L (≈ 92.3 µM).
As for `CCCC(NC)C(=O)NCc1ccc(OCc2ccc(C(F)(F)F)cc2)cc1` (racemic) [Compound 30, (R)/(S)-2-(methylamino)-N-(4-(4-trifluoromethyl)benzyl)oxy)benzyl)pentanamide], the “MIC C. albicans” value in test [1] amounted to 8 mg/L (≈ 20.3 µM). Also, in test [2], the “MIC C. neoformans” value is 2 mg/L (≈ 5.07 µM). For the same molecule, the “MIC C. glabrata” value in test [3] was found to be 8 mg/L (≈ 20.3 µM).
On to `CCCC(NC)C(=O)NCc1ccc(OCc2ccc(C(F)(F)F)cc2)cc1` (racemic) [Compound 31, (R)/(S)-2-(methylamino)-N-(4-((4-trifluoromethyl)benzyl)oxy)benzyl)pentanamide], for which, in test [1], the “MIC C. albicans” value turned out to be 16 mg/L (≈ 40.6 µM). Further, in test [2], the “MIC C. neoformans” value was 4 mg/L (≈ 10.1 µM). In test [3], the “MIC C. glabrata” value is 16 mg/L (≈ 40.6 µM).
Take `Cl.O=C(NCc1ccc(OCc2cccc(F)c2)cc1)C1CCCN1` (racemic) [Compound 38, (R)/(S)-N-(4-((3-fluorobenzyl)oxy)benzyl)pyrrolidine-2-carboxamide hydrochloride]: the “MIC C. neoformans” value in test [2] (hydrochloride) was 128 mg/L.
With `Cl.O=C(NCc1ccc(OCc2ccc(F)cc2)cc1)C1CCCN1` (racemic) [Compound 39, (R)/(S)-N-(4-((4-fluorobenzyl)oxy)benzyl)pyrrolidine-2-carboxamide hydrochloride], in test [1], the “MIC C. albicans” value was over 128 mg/L. Moreover, the “MIC C. neoformans” value in test [2] was determined as 128 mg/L. Further, the “MIC C. glabrata” value in test [3] is over 128 mg/L.
Take `Cl.O=C(NCc1ccc(OCc2ccc(C(F)(F)F)cc2)cc1)C1CCCN1` (racemic) [Compound 40, (R)/(S)-N-(4-((4-(trifluoromethyl)benzyl)oxy)benzyl)pyrrolidine-2-carboxamide hydrochloride]: the “MIC C. albicans” value in test [1] amounted to 64 mg/L. Besides, in test [2] (hydrochloride), the “MIC C. neoformans” value amounted to 16 mg/L. For the same molecule, the “MIC C. glabrata” value in test [3] (hydrochloride) came out at 32 mg/L.
`Cl.O=C(NCc1ccc(OCc2ccc(Cl)cc2)cc1)C1CCCN1` (racemic) [Compound 41, (R)/(S)-N-(4-((4-chlorobenzyl)oxy)benzyl)pyrrolidine-2-carboxamide hydrochloride]: in test [1], the “MIC C. albicans” value is 64 mg/L. The “MIC C. neoformans” value in test [2] (hydrochloride) was found to be 32 mg/L. For the same molecule, the “MIC C. glabrata” value in test [3] (hydrochloride) was 64 mg/L.
As to `CCC(N)C(=O)NCc1ccc(OCc2ccc(Cl)c(Cl)c2)cc1.Cl` (racemic) [Compound 57, (R)/(S)-1-((4-(3,4-dichlorobenzyl)oxy)benzyl)amino)-1-oxobutane-2-aminium chloride], in test [2], the “MIC C. neoformans” value is 8 mg/L.
Take `CCCC(N)C(=O)NCc1ccc(OCc2ccc(Cl)c(Cl)c2)cc1.Cl` (racemic) [Compound 58, (R)/(S)-1-((4-((3,4-dichlorobenzyl)oxy)benzyl)amino)-1-oxopentane-2-aminium chloride]: the “MIC C. neoformans” value in test [2] amounted to 4 mg/L.
The same measure, in the same setting: then `CCC(C(=O)NCc1ccc(OCc2ccc(C(F)(F)F)cc2)cc1)N(C)C` (racemic) [Compound 59, (R)/(S)-2-(dimethylamino)-N-(4-((4-trifluoromethyl)benzyl)oxy)benzyl)butanamide], with 8 mg/L (≈ 20.3 µM); and `CCC(C(=O)NCc1ccc(OCc2ccc(Cl)c(Cl)c2)cc1)N(C)C` (racemic) [Compound 60, (R)/(S)-N-(4-((3,4-dichlorobenzyl)oxy)benzyl)-2-(dimethylamino)butanamide], with 8 mg/L (≈ 20.2 µM); and `CCC(C(=O)NCc1ccc(OCc2ccc(Cl)c(Cl)c2)cc1)N(C)C` (racemic) [Compound 61, (R)/(S)-N-(4-((3,4-dichlorobenzyl)oxy)benzyl)-2-(dimethylamino)butanamide], with 2 mg/L (≈ 5.06 µM).
For `CCNC(CC)C(=O)NCc1ccc(OCc2ccc(C(F)(F)F)cc2)cc1` (racemic) [Compound 62, (R)/(S)-2-(ethylamino)-N-(4-((4-trifluoromethyl)benzyl)oxy)benzyl)butanamide], in test [2], the “MIC C. neoformans” value was found to be 8 mg/L (≈ 20.3 µM).
On to `CCNC(CC)C(=O)NCc1ccc(OCc2ccc(Cl)c(Cl)c2)cc1` (racemic) [Compound 63, (R)/(S)-N-(4-((3,4-dichlorobenzyl)oxy)benzyl-2-(ethylamino)butanamide], for which, in test [2], the “MIC C. neoformans” value was found to be 4 mg/L (≈ 10.1 µM).
As to `CCCC(NCC)C(=O)NCc1ccc(OCc2ccc(C(F)(F)F)cc2)cc1` (racemic) [Compound 64, (R)/(S)-2-(ethylamino)-N-(4-((4-(trifluoromethyl)benzyl)oxy)benzyl)pentanamide], in test [2], the “MIC C. neoformans” value worked out at 4 mg/L (≈ 9.79 µM).
`CCCC(NCC)C(=O)NCc1ccc(OCc2ccc(Cl)c(Cl)c2)cc1` (racemic) [Compound 65, (R)/(S)-N-(4-((3,4-dichlorobenzyl)oxy)benzyl-2-(ethylamino)pentanamide]: the “MIC C. neoformans” value in test [2] was determined as 2 mg/L (≈ 4.89 µM).
As to `CCC(C(=O)NCc1ccc(OCc2ccc(C(F)(F)F)cc2)cc1)N(CC)CC` (racemic) [Compound 66, (R)/(S)-2-(diethylamino)-N-(4-((4-(trifluoromethyl)benzyl)oxy)benzyl)butanamide], in test [2], the “MIC C. neoformans” value turned out to be 4 mg/L (≈ 9.47 µM).
For `CCC(C(=O)NCc1ccc(OCc2ccc(Cl)c(Cl)c2)cc1)N(CC)CC` (racemic) [Compound 67, (R)/(S)-N-(4-((3,4-dichlorobenzyl)oxy)benzyl-2-(diethylamino)butanamide], in test [2], the “MIC C. neoformans” value stood at 2 mg/L (≈ 4.72 µM).
Turning to `CCCC(C(=O)NCc1ccc(OCc2ccc(C(F)(F)F)cc2)cc1)N(CC)CC` (racemic) [Compound 68, (R)/(S)-2-(diethylamino)-N-(4-((4-(trifluoromethyl)benzyl)oxy)benzyl)pentanamide], the “MIC C. neoformans” value in test [2] amounted to 2 mg/L (≈ 4.58 µM).
On the same count and under the same terms, then `CCCC(C(=O)NCc1ccc(OCc2ccc(Cl)c(Cl)c2)cc1)N(CC)CC` (racemic) [Compound 69, (R)/(S)-N-(4-((3,4-dichlorobenzyl)oxy)benzyl-2-(diethylamino)pentanamide], with 1 mg/L (≈ 2.29 µM).

The values above are taken from patent publication US20250034084A1, “COMPOSITIONS AND METHODS FOR PREVENTING OR TREATING MYCOSIS” (AMTIXBIO CO., LTD., priority 2016, published 2025).
